Marks after values point to notes of the source that are not given here.
Columns and labels:
SKOV3 cells = assay: Scratch assay, SKOV3 tumor cell migration; type: cell-based, human; conditions: 17 hr
Protocol: SKOV3 cells were plated at 15,000 cells per well in a 96-well plate. The following day the cells were serum starved in minimal media (McCoy's Media 5a, adjusted to contain L-Glutamine, 2.2 g/L Sodium Bicarbonate, 1% penicillin/streptomycin and 1 mg/ml BSA) for 24 hrs. At time 0 cells were scratched with a p200 pipet tip down the center of each well, washed with minimal media and pictures were taken prior to treatment. Cells were then treated with LPA (C18:1) at 0.2 uM, 1.0 uM and 10 uM concentrations which were pre-incubated at 37° C. with […] in the presence or absence of antibody at 150 ug/ml. Positive control (10% FBS treated cells) and antibody alone added to 1 uM LPA, were also tested. Cells were stimulated for 17 hrs at 37° C. in a 5% CO2 incubator. Pictures were taken again 17 hr post-treatment and % wound closure was measured by adjusting pictures to the same size and measuring the width of the scratch at time 0 and time 17 hr with a ruler. Data were analyzed by Student's t-test.

IL-8 in Caki-1 cells = assay: LPA-induced IL-8 production in Caki-1 cells; type: cell-based, human; conditions: 18:1 LPA (0.2 mM), non-treated cells, average
Protocol: Three anti-LPA mAbs (B3, B7 and B58) were tested for their abilities to reduce in vitro IL-8 production compared to a non-specific antibody (NS). Caki-1 cells were seeded in 96 well plates and grown to confluency. After overnight serum starvation, cells were treated with 18:1 LPA (0.2 mM) with or without anti-LPA mAb B3, B7, B58 or NS (Non-Specific). After 24 h, cultured supernatants of renal cancer cells (Caki-1), treated with or without LPA and in presence of increasing concentrations of the anti-LPA mAbs B3, B7 and B58, were collected and analyzed for IL-8 levels using a commercially available ELISA kit (Human Quantikine Kit, R&D Systems, Minneapolis, Minn.). […] The inhibition of IL-8 release by the anti-LPA mAbs was also observed in other cancerous cell lines such as the pancreatic cell line Panc-1.

[1] = test system: IL-8 release in SKOV3 cells; assay: LPA-induced IL-8 release in SKOV3 cells; type: cell-based, human; conditions: 1 uM LPA alone
Protocol: (§1) Anti-LPA antibodies inhibit the LPA-dependant release of human CXCL8/IL-8 in conditioned media of SKOV3 ovarian cells. SKOV3 cells (Lot No 4255558, passage 14) were harvested with 2 ml of 1× Trypsin EDTA (Mediatech Inc, Cat. No 25-053-CV) and resuspended in 8 ml of complete medium (10% FBS, Mediatech Inc. Cat. no 35-011-CV). The cells were centrifuged for 5 min ([…]) and re-suspended in 5 ml of complete medium. Cells were counted in duplicate with 0.4% Trypan blue (10 ul cells plus 90 ul Trypan blue, Invitrogen, Cat. No 15250-061) using a hemocytometer. In a 96-well plate, 1×10^5 cells per well were seeded (final volume 100 ul/well). The cells were allowed to attach and form a confluent monolayer by incubating overnight at 37° C. On the following day, cells were gently washed two times with minimum media (1 mg/ml BSA in McCoy's medium with L-glutamine, Mediatech, Cat. No 10-050-CV). The media was adjusted to 1% penicillin/streptomycin (Mediatech, Cat. No 30-002 CI) and 2.2 g/L sodium-bicarbonate (Mediatech, Cat. No 25-035-CI). Next, the cells were serum-starved at 37° C. for exactly 24 h, followed by cytokine stimulation with 1 uM C18:1 LPA (Avanti, Cat. No 857130) dissolved in 1 mg/ml BSA/PBS (Calbiochem, Cat. No 126575) which was pre-incubated in presence or absence of humanized LPA antibody LT3015 (150, 300 or 600 ug/mL) for one hour. Treatments were then added to the cells. After 22 h of cytokine stimulation, the cells were centrifuged for 5 min (13,500 rpm) at 4° C. and the supernatants (cell-conditioned media) were collected. The CXCL8/IL-8 levels in each supernatant were measured using the Quantikine human CXCL8/IL-8 ELISA kit according to vendor instructions (R&D Systems, Minneapolis Minn., Cat. No D8000C). The IL-6 levels were measured by ELISA using the Quantikine human IL-6 immunoassay kit (R&D systems, Cat. No. D6050). Data were analyzed by one-way ANOVA followed by Bonferroni's post test and expressed as human IL-8 or human IL-6 fold increase.

[2] = test system: IL-6 release in SKOV3 cells; assay: LPA-induced IL-6 release in SKOV3 cells; type: cell-based, human; conditions: 1 uM LPA alone
Protocol: as §1, with “The media was adjusted to 1% penicillin/streptomycin (Mediatech, Cat. No 30-002 CI) and 2.2 g/L sodium-bicarbonate (Mediatech, Cat. No 25-035-CI). Next, the cells were serum-starved at 37° C. for exactly 24 h, followed by cytokine stimulation with 1 uM C18:1 LPA (Avanti, Cat. No 857130) dissolved in 1 mg/ml BSA/PBS (Calbiochem, Cat. No 126575) which was pre-incubated in presence or absence of humanized LPA antibody LT3015 (150, 300 or 600 ug/mL) for one hour. Treatments were then added to the cells. After 22 h of cytokine stimulation, the cells were centrifuged for 5 min (13,500 rpm) at 4° C. and the supernatants (cell-conditioned media) were collected.” left out

SKOV3 tumor = assay: SKOV3 ovarian tumor progression in nude mice; type: in vivo; conditions: Mean ± S.E.
Protocol: Human mAb LT3015 reduced ovarian tumor SKOV3 progression and circulating cytokines in biological fluids. Nude mice were engrafted with either 10 mg/kg LT3015, vehicle, or 2 mg/kg paclitaxel (Taxol). After 56 days, mice were sacrificed and the peritoneal cavities were analyzed for tumor burden and ascites fluid accumulation. Tumors were harvested and final tumor weights were determined along with ascites volumes. Data were analyzed by ANOVA and student's t-test analysis. […] Serum and ascites levels of IL-6, IL-8, GM-CSF and VEGF were measured using ELISA kits from R&D systems, Minneapolis Minn.

Compound | Percent wound closure (approx.) (SKOV3 cells; 0.2 uM LPA) | Percent wound closure (approx.) (SKOV3 cells; 1.0 uM LPA) | Percent wound closure (approx.) (SKOV3 cells; 10 uM LPA) | increase of IL-8 expression (IL-8 in Caki-1 cells) | Human IL-8 Fold Increase (approx). [1] | Human IL-6 Fold Increase (approx). [2] | Ascites volume (SKOV3 tumor)
Lysophosphatidic acid [LPA, reference compound] | ~65% | ~81% | ~89% | 100% | ~7.1## | ~29## | –
CC(=O)O[C@H]1C(=O)[C@@]2(C)[C@H]([C@H](OC(=O)c3ccccc3)[C@]3(O)C[C@H](OC(=O)[C@H](O)[C@@H](NC(=O)c4ccccc4)c4ccccc4)C(C)=C1C3(C)C)[C@]1(OC(C)=O)CO[C@@H]1C[C@@H]2O [Taxol, paclitaxel, reference compound] | – | – | – | – | – | – | 0.2 ± 0.0 mL
